Assay results from the NIST ThermoML archive (doi:10.1016/j.tca.2015.02.014).

Test: mn = molality of the nth substance listed, in mol/kg
Details: 100 kPa, Liquid; for viscosity: Capillary tube (Ostwald / Ubbelohde) method; for speed of sound: Frequency=3 MHz, Sing-around technique in a fixed-path interferometer; for mass density: Vibrating tube method

C[C@H](CCC(=O)[O-])[C@H]1CC[C@H]2[C@@H]3CC[C@@H]4C[C@H](O)CC[C@]4(C)[C@H]3C[C@H](O)[C@]12C.[Na+] [sodium deoxycholate] + O
Details | mass density, 293.15 K [kg/m3] | mass density, 298.15 K [kg/m3] | mass density, 303.15 K [kg/m3] | speed of sound, 293.15 K [m/s] | speed of sound, 298.15 K [m/s] | speed of sound, 303.15 K [m/s] | viscosity, 293.15 K [mPa·s] | viscosity, 298.15 K [mPa·s] | viscosity, 303.15 K [mPa·s]
m1 = 0.001 | 998.465 | 997.29 | 995.88 | 1483.4 | 1497.2 | 1509.6 | 1.003 | 0.8914 | 0.7987
m1 = 0.002 | 998.579 | 997.395 | 995.983 | 1483.8 | 1497.5 | 1509.9 | 1.004 | 0.8926 | 0.7999
m1 = 0.003 | 998.669 | 997.475 | 996.059 | 1484.2 | 1497.8 | 1510 | 1.006 | 0.8937 | 0.801
m1 = 0.004 | 998.749 | 997.555 | 996.137 | 1484.5 | 1497.9 | 1510.2 | 1.009 | 0.8967 | 0.8039
m1 = 0.005 | 998.815 | 997.635 | 996.215 | 1484.6 | 1498.1 | 1510.5 | 1.014 | 0.9021 | 0.8092
m1 = 0.006 | 998.905 | 997.715 | 996.289 | 1485 | 1498.4 | 1510.7 | 1.027 | 0.915 | 0.822
m1 = 0.007 | 998.995 | 997.805 | 996.377 | 1485.2 | 1498.7 | 1511 | 1.036 | 0.924 | 0.8309
m1 = 0.009 | 999.185 | 997.996 | 996.557 | 1485.5 | 1499.2 | 1511.3 | 1.045 | 0.9323 | 0.8391
m1 = 0.011 | 999.39 | 998.185 | 996.745 | 1485.8 | 1499.5 | 1511.8 | 1.049 | 0.9368 | 0.8434
m1 = 0.013 | 999.585 | 998.388 | 996.921 | 1486.2 | 1499.9 | 1512 | 1.053 | 0.941 | 0.8476
m1 = 0.015 | 999.795 | 998.572 | 997.109 | 1486.5 | 1500.2 | 1512.3 | 1.062 | 0.9489 | 0.8554
m1 = 0.017 | 999.993 | 998.772 | 997.29 | 1486.8 | 1500.6 | 1512.7 | 1.069 | 0.956 | 0.8624
